Test results from patent US9809578B2, “Pyrazolyl urea, thiourea, guanidine and cyanoguanidine compounds as trkA kinase inhibitors” (Array BioPharma Inc., priority 2012, dated 2017).
pIC50: −log10 of the molar value.

Tests used:
MSK1 = molecular target: T1, MSK1 (Homo sapiens, UniProt O75582); assay: KinaseProfiler MSK1; type: biochemical; settings: 10 μM, ATP near Km
T1 construct: purchased Millipore, Inc. (KinaseProfiler service)
Excerpt: (§1) The compound was run in duplicate at a concentration of ATP near the Km for each individual kinase according to Millipore's specifications.

DCAMKL2 = molecular target: T2, DCAMKL2 (Homo sapiens, UniProt Q8N568); assay: KinaseProfiler DCAMKL2; type: biochemical; settings: 10 μM, ATP near Km
T2 construct: purchased Millipore, Inc. (KinaseProfiler service)
Excerpt: as §1

CK1_y = assay: KinaseProfiler CK1_y; type: biochemical; settings: 10 μM, ATP near Km
Fer = molecular target: T3, Fer (Homo sapiens, UniProt P16591); assay: KinaseProfiler Fer; type: biochemical; settings: 10 μM, ATP near Km
T3 construct: purchased Millipore, Inc. (KinaseProfiler service)
Excerpt: as §1

FGFR3 = molecular target: T4, FGFR3 (Homo sapiens, UniProt P22607); assay: KinaseProfiler FGFR3; type: biochemical; settings: 10 μM, ATP near Km
T4 construct: purchased Millipore, Inc. (KinaseProfiler service)
Excerpt: as §1

CDK7/cyclinH/MAT1 = molecular target: T5, CDK7/cyclinH/MAT1 (Homo sapiens, UniProt P50613); assay: KinaseProfiler CDK7/cyclinH/MAT1; type: biochemical; settings: 10 μM, ATP near Km
T5 construct: purchased Millipore, Inc. (KinaseProfiler service)
Excerpt: as §1

Plk1 = molecular target: T6, Plk1 (Homo sapiens, UniProt P53350); assay: KinaseProfiler Plk1; type: biochemical; settings: 10 μM, ATP near Km
T6 construct: purchased Millipore, Inc. (KinaseProfiler service)
Excerpt: as §1

ALK = molecular target: T7, ALK (Homo sapiens, UniProt Q9UM73); assay: KinaseProfiler ALK; type: biochemical; settings: 10 μM, ATP near Km
T7 construct: purchased Millipore (KinaseProfiler service)
Excerpt: as §1

MARK1 = molecular target: T8, MARK1 (Homo sapiens, UniProt Q9P0L2); assay: KinaseProfiler MARK1; type: biochemical; settings: 10 μM, ATP near Km
T8 construct: purchased Millipore, Inc. (KinaseProfiler service)
Excerpt: as §1

FAK = molecular target: T9, FAK (Homo sapiens, UniProt Q05397); assay: KinaseProfiler FAK; type: biochemical; settings: 10 μM, ATP near Km
T9 construct: purchased Millipore, Inc. (KinaseProfiler service)
Excerpt: as §1

PAK2 = molecular target: T10, PAK2 (Homo sapiens, UniProt Q13177); assay: KinaseProfiler PAK2; type: biochemical; settings: 10 μM, ATP near Km
T10 construct: purchased Millipore, Inc. (KinaseProfiler service)
Excerpt: as §1

CDK6/cyclinD3 = molecular target: T11, CDK6/cyclinD3 (Homo sapiens, UniProt Q00534); assay: KinaseProfiler CDK6/cyclinD3; type: biochemical; settings: 10 μM, ATP near Km
T11 construct: purchased Millipore, Inc. (KinaseProfiler service)
Excerpt: as §1

EGFR = molecular target: T12, EGFR (Homo sapiens, UniProt P00533); assay: KinaseProfiler EGFR; type: biochemical; settings: 10 μM, ATP near Km
T12 construct: purchased Millipore, Inc. (KinaseProfiler service)
Excerpt: as §1

Ret = molecular target: T13, Ret (Homo sapiens, UniProt P07949); assay: KinaseProfiler Ret; type: biochemical; settings: 10 μM, ATP near Km
T13 construct: purchased Millipore, Inc. (KinaseProfiler service)
Excerpt: as §1

HIPK3 = molecular target: T14, HIPK3 (Homo sapiens, UniProt Q9H422); assay: KinaseProfiler HIPK3; type: biochemical; settings: 10 μM, ATP near Km
T14 construct: purchased Millipore, Inc. (KinaseProfiler service)
Excerpt: as §1

MKNK2 = molecular target: T15, MKNK2 (Homo sapiens, UniProt Q9HBH9); assay: KinaseProfiler MKNK2; type: biochemical; settings: 10 μM, ATP near Km
T15 construct: purchased Millipore, Inc. (KinaseProfiler service)
Excerpt: as §1

ERK2 = molecular target: T16, ERK2 (Homo sapiens, UniProt P28482); assay: KinaseProfiler ERK2; type: biochemical; settings: 10 μM, ATP near Km
T16 construct: purchased Millipore, Inc. (KinaseProfiler service)
Excerpt: as §1

TAO3 = molecular target: T17, TAO3 (Homo sapiens, UniProt Q9H2K8); assay: KinaseProfiler TAO3; type: biochemical; settings: 10 μM, ATP near Km
T17 construct: purchased Millipore, Inc. (KinaseProfiler service)
Excerpt: as §1

Abl-P = molecular target: T18, Abl-P (Homo sapiens, UniProt P00519); assay: KinaseProfiler Abl-P; type: biochemical; settings: 10 μM, ATP near Km
T18 construct: purchased Millipore (KinaseProfiler service)
Excerpt: as §1

ERK1 = molecular target: T19, ERK1 (Homo sapiens, UniProt P27361); assay: KinaseProfiler ERK1; type: biochemical; settings: 10 μM, ATP near Km
T19 construct: purchased Millipore, Inc. (KinaseProfiler service)
Excerpt: as §1

MRCKbeta = molecular target: T20, MRCKbeta (Homo sapiens, UniProt Q9Y5S2); assay: KinaseProfiler MRCKbeta; type: biochemical; settings: 10 μM, ATP near Km
T20 construct: purchased Millipore, Inc. (KinaseProfiler service)
Excerpt: as §1

CDK5/p25 = molecular target: T21, CDK5/p25 (Homo sapiens, UniProt Q00535); assay: KinaseProfiler CDK5/p25; type: biochemical; settings: 10 μM, ATP near Km
T21 construct: purchased Millipore, Inc. (KinaseProfiler service)
Excerpt: as §1

AMPK(A1/B1/G1) = molecular target: T22, AMPK(A1/B1/G1) (Homo sapiens, UniProt Q13131); assay: KinaseProfiler AMPK(A1/B1/G1); type: biochemical; settings: 10 μM, ATP near Km
T22 construct: purchased Millipore (KinaseProfiler service)
Excerpt: as §1

CHK2 = molecular target: T23, CHK2 (Homo sapiens, UniProt O96017); assay: KinaseProfiler CHK2; type: biochemical; settings: 10 μM, ATP near Km
T23 construct: purchased Millipore, Inc. (KinaseProfiler service)
Excerpt: as §1

PRKG1beta = molecular target: T24, PRKG1beta (Homo sapiens, UniProt Q13976); assay: KinaseProfiler PRKG1beta; type: biochemical; settings: 10 μM, ATP near Km
T24 construct: purchased Millipore, Inc. (KinaseProfiler service)
Excerpt: as §1

[1] = molecular target: T25, His-tagged recombinant human TrkA (Homo sapiens, UniProt P04629); assay: TrkA LanthaScreen Eu Kinase Binding Assay
T25 construct: 6HIS tagged cytoplasmic domain from Invitrogen, Cat. No. PV3144; purchased Invitrogen PV3144
Procedure: TrkA binding activity was determined in a TrkA LanthaScreen™ Eu Kinase Binding Assay. […] Three fold serial dilutions of compounds of the invention in DMSO were added to a final percentage of 2% DMSO. […] The percent of control was calculated using a ratiometric emission factor. The IC50 values were determined by fitting a four parameter model to the percent of control data.

EphB4 = molecular target: T26, EphB4 (Homo sapiens, UniProt P54760); assay: KinaseProfiler EphB4; type: biochemical; settings: 10 μM, ATP near Km
T26 construct: purchased Millipore, Inc. (KinaseProfiler service)
Excerpt: as §1

PKCbetaII = molecular target: T27, PKCbetaII (Homo sapiens, UniProt P05771); assay: KinaseProfiler PKCbetaII; type: biochemical; settings: 10 μM, ATP near Km
T27 construct: purchased Millipore, Inc. (KinaseProfiler service)
Excerpt: as §1

KIT = molecular target: T28, KIT (Homo sapiens, UniProt P10721); assay: KinaseProfiler KIT; type: biochemical; settings: 10 μM, ATP near Km
T28 construct: purchased Millipore, Inc. (KinaseProfiler service)
Excerpt: as §1

NEK2 = molecular target: T29, NEK2 (Homo sapiens, UniProt P51955); assay: KinaseProfiler NEK2; type: biochemical; settings: 10 μM, ATP near Km
T29 construct: purchased Millipore, Inc. (KinaseProfiler service)
Excerpt: as §1

SGK3 = molecular target: T30, SGK3 (Homo sapiens, UniProt Q96BR1); assay: KinaseProfiler SGK3; type: biochemical; settings: 10 μM, ATP near Km
T30 construct: purchased Millipore, Inc. (KinaseProfiler service)
Excerpt: as §1

Fgr = molecular target: T31, Fgr (Homo sapiens, UniProt P09769); assay: KinaseProfiler Fgr; type: biochemical; settings: 10 μM, ATP near Km
T31 construct: purchased Millipore, Inc. (KinaseProfiler service)
Excerpt: as §1

CK1gamma2 = molecular target: T32, CK1gamma2 (Homo sapiens, UniProt P78368); assay: KinaseProfiler CK1gamma2; type: biochemical; settings: 10 μM, ATP near Km
T32 construct: purchased Millipore, Inc. (KinaseProfiler service)
Excerpt: as §1

ROCK-I = molecular target: T33, ROCK-I (Homo sapiens, UniProt Q13464); assay: KinaseProfiler ROCK-I; type: biochemical; settings: 10 μM, ATP near Km
T33 construct: purchased Millipore, Inc. (KinaseProfiler service)
Excerpt: as §1

CDK1/cyclinB = molecular target: T34, CDK1/cyclinB (Homo sapiens, UniProt P06493); assay: KinaseProfiler CDK1/cyclinB; type: biochemical; settings: 10 μM, ATP near Km
T34 construct: purchased Millipore (KinaseProfiler service)
Excerpt: as §1

Ros = molecular target: T35, Ros (Homo sapiens, UniProt P08922); assay: KinaseProfiler Ros; type: biochemical; settings: 10 μM, ATP near Km
T35 construct: purchased Millipore, Inc. (KinaseProfiler service)
Excerpt: as §1

EphB1 = molecular target: T36, EphB1 (Homo sapiens, UniProt P54762); assay: KinaseProfiler EphB1; type: biochemical; settings: 10 μM, ATP near Km
T36 construct: purchased Millipore, Inc. (KinaseProfiler service)
Excerpt: as §1

DYRK2 = molecular target: T37, DYRK2 (Homo sapiens, UniProt Q92630); assay: KinaseProfiler DYRK2; type: biochemical; settings: 10 μM, ATP near Km
T37 construct: purchased Millipore, Inc. (KinaseProfiler service)
Excerpt: as §1

p38alpha = molecular target: T38, p38alpha (Homo sapiens, UniProt Q16539); assay: KinaseProfiler p38alpha; type: biochemical; settings: 10 μM, ATP near Km
T38 construct: purchased Millipore, Inc. (KinaseProfiler service)
Excerpt: as §1

LOK = molecular target: T39, LOK (Homo sapiens, UniProt O94804); assay: KinaseProfiler LOK; type: biochemical; settings: 10 μM, ATP near Km
T39 construct: purchased Millipore, Inc. (KinaseProfiler service)
Excerpt: as §1

T19 sequence (P27361 whole entry): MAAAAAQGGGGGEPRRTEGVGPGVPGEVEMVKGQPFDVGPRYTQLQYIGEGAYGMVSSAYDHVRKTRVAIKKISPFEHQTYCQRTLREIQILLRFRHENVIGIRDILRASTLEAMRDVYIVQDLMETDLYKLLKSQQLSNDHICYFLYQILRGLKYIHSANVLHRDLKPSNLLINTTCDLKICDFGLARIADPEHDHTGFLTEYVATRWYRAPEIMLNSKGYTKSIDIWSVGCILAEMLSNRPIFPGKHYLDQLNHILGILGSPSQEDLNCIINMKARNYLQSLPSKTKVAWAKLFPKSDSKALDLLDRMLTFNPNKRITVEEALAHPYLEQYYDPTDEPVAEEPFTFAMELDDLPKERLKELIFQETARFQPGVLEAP
T1 sequence (O75582 whole entry): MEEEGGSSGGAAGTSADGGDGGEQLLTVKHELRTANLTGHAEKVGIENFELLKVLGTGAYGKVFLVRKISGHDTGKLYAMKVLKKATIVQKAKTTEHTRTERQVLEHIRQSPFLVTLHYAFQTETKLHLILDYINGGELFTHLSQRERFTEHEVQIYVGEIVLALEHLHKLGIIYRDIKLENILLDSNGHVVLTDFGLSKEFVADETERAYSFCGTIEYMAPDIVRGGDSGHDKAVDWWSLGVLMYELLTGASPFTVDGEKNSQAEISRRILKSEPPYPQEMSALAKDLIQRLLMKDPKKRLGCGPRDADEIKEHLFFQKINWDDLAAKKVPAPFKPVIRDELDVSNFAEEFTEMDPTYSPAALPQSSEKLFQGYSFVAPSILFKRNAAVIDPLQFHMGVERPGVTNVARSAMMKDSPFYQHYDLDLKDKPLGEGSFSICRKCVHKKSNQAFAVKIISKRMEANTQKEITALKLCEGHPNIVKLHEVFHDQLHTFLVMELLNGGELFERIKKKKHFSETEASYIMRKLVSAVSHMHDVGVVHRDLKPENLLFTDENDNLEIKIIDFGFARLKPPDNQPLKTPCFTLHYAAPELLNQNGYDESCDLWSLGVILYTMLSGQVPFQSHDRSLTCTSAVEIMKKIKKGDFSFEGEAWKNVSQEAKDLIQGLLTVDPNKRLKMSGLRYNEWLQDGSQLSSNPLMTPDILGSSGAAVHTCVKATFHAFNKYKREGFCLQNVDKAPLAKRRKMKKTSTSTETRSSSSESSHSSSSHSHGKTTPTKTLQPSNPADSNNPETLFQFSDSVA
T39 sequence (O94804 whole entry): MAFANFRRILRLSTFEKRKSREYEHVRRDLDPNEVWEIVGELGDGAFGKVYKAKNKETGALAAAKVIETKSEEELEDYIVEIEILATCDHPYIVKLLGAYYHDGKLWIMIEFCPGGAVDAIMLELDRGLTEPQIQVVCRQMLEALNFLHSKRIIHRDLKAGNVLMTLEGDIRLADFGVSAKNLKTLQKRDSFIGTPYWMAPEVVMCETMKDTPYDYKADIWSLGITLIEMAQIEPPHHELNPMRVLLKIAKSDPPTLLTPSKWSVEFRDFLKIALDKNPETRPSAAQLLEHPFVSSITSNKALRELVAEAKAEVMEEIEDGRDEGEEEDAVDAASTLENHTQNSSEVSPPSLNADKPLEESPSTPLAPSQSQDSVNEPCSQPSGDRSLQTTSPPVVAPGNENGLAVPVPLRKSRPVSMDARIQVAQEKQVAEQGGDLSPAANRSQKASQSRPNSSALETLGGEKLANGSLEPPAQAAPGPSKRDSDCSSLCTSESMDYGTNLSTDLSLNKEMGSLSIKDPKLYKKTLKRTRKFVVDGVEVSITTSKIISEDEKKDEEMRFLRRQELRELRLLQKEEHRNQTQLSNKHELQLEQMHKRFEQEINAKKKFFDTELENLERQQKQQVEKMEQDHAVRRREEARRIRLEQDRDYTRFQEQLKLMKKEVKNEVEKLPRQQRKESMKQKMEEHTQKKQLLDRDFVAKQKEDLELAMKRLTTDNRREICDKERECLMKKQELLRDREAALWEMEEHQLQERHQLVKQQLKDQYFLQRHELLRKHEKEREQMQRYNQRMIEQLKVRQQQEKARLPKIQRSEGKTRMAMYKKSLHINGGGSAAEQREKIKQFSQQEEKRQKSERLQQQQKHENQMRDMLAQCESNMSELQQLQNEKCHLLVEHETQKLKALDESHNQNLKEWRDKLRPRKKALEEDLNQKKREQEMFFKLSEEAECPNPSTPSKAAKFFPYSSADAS
T13 sequence (P07949 29-1114): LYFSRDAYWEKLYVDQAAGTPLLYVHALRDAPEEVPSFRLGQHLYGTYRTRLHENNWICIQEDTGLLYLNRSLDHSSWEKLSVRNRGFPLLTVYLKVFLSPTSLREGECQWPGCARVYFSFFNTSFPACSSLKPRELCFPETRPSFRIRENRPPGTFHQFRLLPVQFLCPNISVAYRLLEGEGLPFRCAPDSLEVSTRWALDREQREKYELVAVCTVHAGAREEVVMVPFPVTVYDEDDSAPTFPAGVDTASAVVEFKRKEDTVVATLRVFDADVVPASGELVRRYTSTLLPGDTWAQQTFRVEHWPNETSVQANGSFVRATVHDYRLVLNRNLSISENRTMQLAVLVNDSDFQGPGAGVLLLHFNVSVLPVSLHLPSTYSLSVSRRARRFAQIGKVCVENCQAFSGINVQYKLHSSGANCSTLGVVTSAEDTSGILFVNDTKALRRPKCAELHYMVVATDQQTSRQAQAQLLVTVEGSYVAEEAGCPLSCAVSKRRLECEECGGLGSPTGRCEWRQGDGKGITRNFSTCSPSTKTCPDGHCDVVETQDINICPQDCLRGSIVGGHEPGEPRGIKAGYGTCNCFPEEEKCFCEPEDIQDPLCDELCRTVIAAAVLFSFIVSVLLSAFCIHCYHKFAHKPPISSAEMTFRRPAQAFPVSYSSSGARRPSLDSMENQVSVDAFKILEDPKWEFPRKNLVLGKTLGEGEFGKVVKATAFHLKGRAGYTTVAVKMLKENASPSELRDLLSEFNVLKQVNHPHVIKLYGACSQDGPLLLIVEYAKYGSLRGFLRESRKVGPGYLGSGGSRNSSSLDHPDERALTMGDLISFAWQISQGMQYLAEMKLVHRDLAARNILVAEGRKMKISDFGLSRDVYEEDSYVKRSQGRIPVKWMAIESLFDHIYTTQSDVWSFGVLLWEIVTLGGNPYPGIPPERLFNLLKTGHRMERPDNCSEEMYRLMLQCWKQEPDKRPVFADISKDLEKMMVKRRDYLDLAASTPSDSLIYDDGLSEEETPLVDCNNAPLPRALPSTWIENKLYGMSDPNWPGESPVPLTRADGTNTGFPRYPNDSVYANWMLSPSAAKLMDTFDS
T11 sequence (Q00534 whole entry): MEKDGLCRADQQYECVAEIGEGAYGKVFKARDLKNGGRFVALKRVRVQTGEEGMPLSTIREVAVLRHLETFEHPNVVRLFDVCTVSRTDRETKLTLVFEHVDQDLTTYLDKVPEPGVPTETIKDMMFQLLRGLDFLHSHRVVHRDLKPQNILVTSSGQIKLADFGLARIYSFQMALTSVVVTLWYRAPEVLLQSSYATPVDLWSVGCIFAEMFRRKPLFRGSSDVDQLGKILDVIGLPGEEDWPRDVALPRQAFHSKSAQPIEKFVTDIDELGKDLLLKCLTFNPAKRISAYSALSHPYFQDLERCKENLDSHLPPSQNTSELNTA
T11 sequence (P30281 whole entry partner): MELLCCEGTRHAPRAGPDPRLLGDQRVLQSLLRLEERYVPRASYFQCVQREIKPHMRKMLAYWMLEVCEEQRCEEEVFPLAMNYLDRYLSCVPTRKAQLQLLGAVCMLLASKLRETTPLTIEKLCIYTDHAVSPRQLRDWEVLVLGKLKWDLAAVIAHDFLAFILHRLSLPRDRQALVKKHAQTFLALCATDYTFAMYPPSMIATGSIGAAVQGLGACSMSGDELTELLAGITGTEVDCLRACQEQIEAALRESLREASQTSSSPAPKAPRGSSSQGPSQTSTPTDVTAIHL
T26 sequence (P54760 16-987): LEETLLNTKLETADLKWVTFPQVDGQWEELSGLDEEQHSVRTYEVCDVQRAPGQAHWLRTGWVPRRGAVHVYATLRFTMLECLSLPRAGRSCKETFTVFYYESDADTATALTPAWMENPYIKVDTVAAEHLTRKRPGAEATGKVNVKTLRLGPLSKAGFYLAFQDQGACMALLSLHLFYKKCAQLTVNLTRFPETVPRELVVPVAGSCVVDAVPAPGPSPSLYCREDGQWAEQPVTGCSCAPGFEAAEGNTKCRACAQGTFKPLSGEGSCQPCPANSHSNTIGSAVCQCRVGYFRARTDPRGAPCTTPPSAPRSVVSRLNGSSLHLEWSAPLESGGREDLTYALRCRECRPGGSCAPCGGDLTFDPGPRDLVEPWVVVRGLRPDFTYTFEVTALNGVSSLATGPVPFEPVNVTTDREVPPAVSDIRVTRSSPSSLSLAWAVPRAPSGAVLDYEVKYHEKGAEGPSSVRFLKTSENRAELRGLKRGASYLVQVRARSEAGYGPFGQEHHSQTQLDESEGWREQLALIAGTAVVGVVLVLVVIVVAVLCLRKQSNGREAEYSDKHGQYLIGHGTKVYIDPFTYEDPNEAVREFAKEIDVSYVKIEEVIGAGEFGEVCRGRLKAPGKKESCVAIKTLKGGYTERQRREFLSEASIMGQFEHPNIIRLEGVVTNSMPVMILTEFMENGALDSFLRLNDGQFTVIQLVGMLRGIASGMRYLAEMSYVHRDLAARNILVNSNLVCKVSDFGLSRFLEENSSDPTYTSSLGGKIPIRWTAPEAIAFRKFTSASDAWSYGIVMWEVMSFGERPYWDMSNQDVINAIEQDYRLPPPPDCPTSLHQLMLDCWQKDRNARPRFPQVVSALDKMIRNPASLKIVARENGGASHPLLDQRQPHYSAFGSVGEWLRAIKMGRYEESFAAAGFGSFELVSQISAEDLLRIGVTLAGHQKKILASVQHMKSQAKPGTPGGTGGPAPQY

Cc1c(-c2cnn(C)c2)nn(-c2ccccc2)c1NC(=O)Nc1cc(C(F)(F)F)nn1-c1ccccc1 [Example 3, 1-(1′,4-dimethyl-1-phenyl-1H,1′H-[3,4′-bipyrazol]-5-yl)-3-(1-phenyl-3-(trifluoromethyl)-1H-pyrazol-5-yl)urea]
Avg POC (MSK1): 152.5 POC
Avg POC (DCAMKL2): 222.5 POC
Avg POC (CK1_y): 98 POC
Avg POC (Fer): 92.5 POC
Avg POC (FGFR3): 116.5 POC
Avg POC (CDK7/cyclinH/MAT1): 120.5 POC
Avg POC (Plk1): 95 POC
Avg POC (ALK): 110 POC
Avg POC (MARK1): 112 POC
Avg POC (FAK): 105.5 POC
Avg POC (PAK2): 98 POC
Avg POC (CDK6/cyclinD3): 107.5 POC
Avg POC (EGFR): 97.5 POC
Avg POC (Ret): 89.5 POC
Avg POC (HIPK3): 109.5 POC
Avg POC (MKNK2): 99 POC
Avg POC (ERK2): 116 POC
Avg POC (TAO3): 94 POC
Avg POC (Abl-P): 154.5 POC
Avg POC (ERK1): 111.5 POC
Avg POC (MRCKbeta): 121.5 POC
Avg POC (CDK5/p25): 108.5 POC
Avg POC (AMPK(A1/B1/G1)): 149.5 POC
Avg POC (CHK2): 126.5 POC
Avg POC (PRKG1beta): 98 POC
pIC50 [1]: > 7.00
Avg POC (EphB4): 116 POC
Avg POC (PKCbetaII): 96.5 POC
Avg POC (KIT): 86.5 POC
Avg POC (NEK2): 125.5 POC
Avg POC (SGK3): 133 POC
Avg POC (Fgr): 118 POC
Avg POC (CK1gamma2): 109 POC
Avg POC (ROCK-I): 115 POC
Avg POC (CDK1/cyclinB): 102.5 POC
Avg POC (Ros): 97 POC
Avg POC (EphB1): 122 POC
Avg POC (DYRK2): 92.5 POC
Avg POC (p38alpha): 93 POC
Avg POC (LOK): 97.5 POC
